According to US10138222B2, “Substituted benzamides as RIPK2 inhibitors” (Boehringer Ingelheim International GmbH, priority 2016, dated 2018):

Biological target: RIPK2 (Homo sapiens (Human), UniProt O43353)
Assay: RIPK2 inhibition, ADP-Glo Kinase Assay
Assay type: biochemical
Conditions: 8His-RIPK2 FL enzyme 8 nM, ATP 5 μM, 15 minutes pre-incubation, 60 minutes at 37° C., luminescence
Method in brief: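 Full-length 8His-RIPK2 (8 nM) preincubated 15 min at RT with compound (1% DMSO), then 5 μM ATP added for 60 min at 37 °C in HEPES pH 7.5 buffer with Mg2+/Mn2+. ADP measured by ADP-Glo luminescence; activity expressed as % of vehicle control, no-enzyme wells as low control.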

Sequence of RIPK2 (O43353 whole entry): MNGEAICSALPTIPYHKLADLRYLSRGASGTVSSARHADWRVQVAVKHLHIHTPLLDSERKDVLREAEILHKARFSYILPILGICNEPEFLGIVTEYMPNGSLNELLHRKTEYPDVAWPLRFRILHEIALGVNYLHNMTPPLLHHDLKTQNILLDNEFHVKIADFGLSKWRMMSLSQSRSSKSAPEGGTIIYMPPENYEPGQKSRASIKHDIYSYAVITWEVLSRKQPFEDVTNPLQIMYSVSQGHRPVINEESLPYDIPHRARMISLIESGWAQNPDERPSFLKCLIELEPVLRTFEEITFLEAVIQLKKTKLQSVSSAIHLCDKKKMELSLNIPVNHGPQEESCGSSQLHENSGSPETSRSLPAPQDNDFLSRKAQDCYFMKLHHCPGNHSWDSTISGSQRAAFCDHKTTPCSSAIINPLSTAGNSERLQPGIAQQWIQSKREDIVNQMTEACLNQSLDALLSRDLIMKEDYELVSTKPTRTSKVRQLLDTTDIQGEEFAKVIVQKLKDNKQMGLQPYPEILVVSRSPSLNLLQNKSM

Row | SMILES | IC50 [nM]
1 | Cc1ccc(C(=O)NC2CC2)cc1-c1cnn(-c2cncc(NC3CCN(C4CCOC4C)CC3)c2)c1 (stereo not shown) [Example 159, N-cyclopropyl-4-methyl-3-[1-(5-{[1-(2-methyloxolan-3-yl)piperidin-4-yl]amino}pyridin-3-yl)-1H-pyrazol-4-yl]benzamide] | 1.8
2 | COC1CCC(N2CCC(Nc3cncc(-n4cc(-c5cc(C(=O)NC6CC6)ccc5C)cn4)c3)CC2)CC1 (stereo not shown) [Example 160, N-cyclopropyl-3-[1-(5-{[1-(4-methoxycyclohexyl)piperidin-4-yl]amino}pyridin-3-yl)-1H-pyrazol-4-yl]-4-methylbenzamide] | 1.1
3 | Cc1ccc(C(=O)NC2CC2)cc1-c1cnn(-c2cncc(NC3CCN(C4CCCOC4)CC3)c2)c1 (stereo not shown) [Example 161, N-cyclopropyl-4-methyl-3-[1-(5-{[1-(oxan-3-yl)piperidin-4-yl]amino}pyridin-3-yl)-1H-pyrazol-4-yl] benzamide] | 1.5
4 | Cc1ccc(C(=O)NC2CC2)cc1-c1cnn(-c2cncc(NC3CCN(C4CCOCC4)CC3)c2)c1 [Example 162, N-cyclopropyl-4-methyl-3-[1-(5-{[1-(oxan-4-yl)piperidin-4-yl]amino}pyridin-3-yl)-1H-pyrazol-4-yl] benzamide] | 2.3
5 | COC1COCCC1N1CCC(Nc2cncc(-n3cc(-c4cc(C(=O)NC5CC5)ccc4C)cn3)c2)CC1 (stereo not shown) [Example 163, N-cyclopropyl-3-[1-(5-{[1-(3-methoxyoxan-4-yl)piperidin-4-yl]amino}pyridin-3-yl)-1H-pyrazol-4-yl]-4-methylbenzamide] | 1.1
6 | Cc1ccc(C(=O)NC2CC2)cc1-c1cnn(-c2cncc(NC3CCN(C4CCOCC4C)CC3)c2)c1 (stereo not shown) [Example 164, N-cyclopropyl-4-methyl-3-[1-(5-{[1-(3-methyloxan-4-yl)piperidin-4-yl]amino}pyridin-3-yl)-1H-pyrazol-4-yl]benzamide] | 2.1
7 | Cc1ccc(C(=O)NC2CC2)cc1-c1cnn(-c2cncc(NC3CCN(C4CCOC(C)C4)CC3)c2)c1 (stereo not shown) [Example 165, N-cyclopropyl-4-methyl-3-[1-(5-{[1-(2-methyloxan-4-yl)piperidin-4-yl]amino}pyridin-3-yl)-1H-pyrazol-4-yl]benzamide] | 1.2
8 | Cc1ccc(C(=O)NC2CC2)cc1-c1cnn(-c2cncc(NC3CCN(C4CCOC4)CC3)c2)c1 (stereo not shown) [Example 166, N-cyclopropyl-4-methyl-3-[1-(5-{[1-(oxolan-3-yl)piperidin-4-yl]amino}pyridin-3-yl)-1H-pyrazol-4-yl] benzamide] | 0.94
9 | Cc1ccc(C(=O)NC2CC2)cc1-c1cnn(-c2cncc(NC3CCN(CC4C5COCC54)CC3)c2)c1 (stereo not shown) [Example 167, N-cyclopropyl-4-methyl-3-(1-{5-[(1-{3-oxabicyclo[3.1.0]hexan-6-ylmethyl}piperidin-4-yl)amino]pyridin-3-yl}-1H-pyrazol-4-yl) benzamide] | 1
10 | Cc1ccc(C(=O)NC2CC2)cc1-c1cnn(-c2cncc(NC3CCN(CC4COCCO4)CC3)c2)c1 (stereo not shown) [Example 168, N-cyclopropyl-3-[1-(5-{[1-(1,4-dioxan-2-ylmethyl)piperidin-4-yl]amino}pyridin-3-yl)-1H-pyrazol-4-yl]-4-methylbenzamide] | 0.95
11 | Cc1cc(F)c(C(=O)NC2CC2)cc1-c1cnn(-c2cncc(N[C@H]3CCN(C)C[C@H]3F)c2)c1 [Example 169] | 1.3
12 | Cc1cc(F)c(C(=O)NC2CC2)cc1-c1cnn(-c2cncc(N[C@@H]3CCN(C)C[C@@H]3F)c2)c1 [Example 170] | 1.8
13 | Cc1cc(F)c(C(=O)NC2CC2)cc1-c1cnn(-c2cncc(N3CCC(N(C)C)CC3)c2)c1 [Example 171, N-Cyclopropyl-5-[1-(4-dimethyl-amino-3,4,5,6-tetrahydro-2H-[1,3″]bipyridinyl-5″-yl)-1H-pyrazol-4-yl]-2-fluoro-4-methyl-benzamide] | 1.4
14 | Cc1cc(F)c(C(=O)NC2CC2)cc1-c1cnn(-c2cncc(OC[C@H]3CCN(C)C3)c2)c1 [Example 172, N-Cyclopropyl-2-fluoro-4-methyl-5-{1-[5-((S)-1-methyl-pyrrolidin-3-ylmethoxy)-pyridin-3-yl]-1H-pyrazol-4-yl}-benzamide] | 1.8
15 | CO[C@@H]1CN(C)CC[C@@H]1Nc1cncc(-n2cc(-c3cc(C(=O)NC4CC4)c(F)cc3Cl)cn2)c1 [Example 173, 4-Chloro-N-cyclopropyl-2-fluoro-5-{1-[5-((3R,4S)-3-methoxy-1-methyl-piperidin-4-ylamino)-pyridin-3-yl]-1H-pyrazol-4-yl}-benzamide] | 1.8
16 | Cc1cc(F)c(C(=O)NC2CC2)cc1-c1cnn(-c2cncc(NC3CCN(CCF)CC3)c2)c1 [Example 174, N-Cyclopropyl-2-fluoro-5-(1-{5-[1-(2-fluoro-ethyl)-piperidin-4-ylamino]-pyridin-3-yl}-1H-pyrazol-4-yl)-4-methyl-benzamide] | 1.5
